The source of these data is patent publication US20090018150A1, “5-Ht2b Receptor Antagonists” (ASTERAND UK LIMITED, priority 2003, published 2009).

Test [1] deals with T1, cloned human 5-HT2A receptor (Homo sapiens, UniProt P28223).
T1 construct: purchased Euroscreen; host or cells: CHO-K1
In words: Human 5-HT2A receptor binding assay. Conditions: [3H]ketanserin (1 nM) displacement, CHO-K1 cell membranes; read-out: 5-HT2A pKi (converted). The gist of the method:
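Competition binding with 15 μg membranes from CHO-K1 cells expressing cloned human receptor, 1 nM [3H]ketanserin, 10 μM pargyline, 50 mM Tris pH 7.4, compounds 1×10^−10 to 1×10^−4 M; 100 μM mianserin defined nonspecific binding. Incubated 15 min at 37 °C, filtered, counted; IC50 converted to Ki using saturation-derived Kd.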

The target of test [2] is T2, human cloned 5-HT2B receptors (Homo sapiens, UniProt P41595).
T2 construct: expressed in transfected cells; host or cells: CHO-K1
T2 sequence (P41595 whole entry): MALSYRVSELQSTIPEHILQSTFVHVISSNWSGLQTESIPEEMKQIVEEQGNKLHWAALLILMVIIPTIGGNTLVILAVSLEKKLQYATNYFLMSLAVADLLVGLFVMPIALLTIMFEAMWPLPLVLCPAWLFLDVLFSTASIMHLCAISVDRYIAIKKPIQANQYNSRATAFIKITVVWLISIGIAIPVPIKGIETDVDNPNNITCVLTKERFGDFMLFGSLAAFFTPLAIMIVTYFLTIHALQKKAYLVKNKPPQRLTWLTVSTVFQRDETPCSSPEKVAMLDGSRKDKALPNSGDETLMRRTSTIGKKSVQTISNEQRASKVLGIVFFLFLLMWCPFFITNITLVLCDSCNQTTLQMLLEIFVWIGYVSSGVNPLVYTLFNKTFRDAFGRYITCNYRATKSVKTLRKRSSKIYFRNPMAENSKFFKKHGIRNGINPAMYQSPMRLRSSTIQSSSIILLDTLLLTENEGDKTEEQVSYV
In words: Human cloned 5-HT2B cell-based functional assay. The following applies: inhibition of 5-HT response, Fluo-4 AM, CHO.K1 cells expressing cloned 5-HT2B receptor. How it is done: The following describes an in vitro functional assay using human cloned 5-HT2B receptors to determine the ability of compounds to block the receptor. CHO.K1 cells expressing cloned 5-HT2B receptor were maintained In Ultra-CHO medium containing 400 μg/ml of G418, 1000 U/ml penicillin, 100 μg/ml streptomycin, 2.5 μg/ml fungizone, in 95/5% O2/CO2 at 37° C. Ultra-CHO medium additionally supplemented with 1% foetal bovine serum was used when seeding the cells and removed after 5 hours. Cells were plated in Costar 96 well white, clear-bottomed plate at a density of 50,000 cells per well and incubated for at least 24 hours in 95/5% O2/CO2 at 37° C. before running the assay. Media was removed from the wells and 200 μl of 4 μM Fluo-4 AM added, this was incubated in a Wallace Victor 2V workstation at 37° C. for 30 minutes. The Fluo-4 AM was then removed from the wells, which were then washed twice with 200 μl of buffer (HBSS without calcium/magnesium/phenol red, 20 mM HEPES, 1 mM Ca^2+, 1 mM Mg^2+, 2.5 mM probenecid, pH to 7.4), 180 μl of buffer or test compound was added to the well and incubated for 30 minutes. The Victor 2V injectors were used to inject 20 μl of 5-HT after obtaining 10 0.1-second baseline readings at 535 nm, followed by 150 readings. All test compounds were aliquoted in 100% DMSO at 10 mM and diluted to 1 mM in 50% DMSO, subsequent dilutions were made using buffer. Buffer was also used to dilute the 5-HT. Data were analysed using Microsoft Excel and GraphPad Prism, with the latter used to produce sigmoidal dose-response curves for each compound. The compound concentration that inhibited the 5-HT response by 50% was taken (IC50-M), and the results are shown in Table 2, as pIC50, being the negative log (to the base 10) of the measured IC50 values.

For test [3], the target named is T3, cloned human 5-HT2C receptor (Homo sapiens, UniProt P28335).
T3 construct: purchased Euroscreen; host or cells: CHO-K1
T3 sequence (P28335 33-458): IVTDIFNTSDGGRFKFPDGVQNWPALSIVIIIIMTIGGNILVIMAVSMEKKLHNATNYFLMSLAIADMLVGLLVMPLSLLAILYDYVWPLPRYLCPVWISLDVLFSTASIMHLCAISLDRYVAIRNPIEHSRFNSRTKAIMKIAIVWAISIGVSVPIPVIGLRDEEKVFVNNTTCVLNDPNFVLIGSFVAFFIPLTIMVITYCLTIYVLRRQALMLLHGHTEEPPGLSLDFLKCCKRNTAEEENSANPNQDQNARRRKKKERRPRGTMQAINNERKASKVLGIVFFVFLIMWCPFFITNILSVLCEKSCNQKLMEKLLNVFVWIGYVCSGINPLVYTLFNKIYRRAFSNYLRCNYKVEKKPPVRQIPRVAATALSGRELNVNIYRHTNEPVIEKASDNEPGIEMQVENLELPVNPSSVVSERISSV
Nature of the test: Human 5-HT2C receptor binding assay. Conditions: [3H]mesulergine (1 nM) displacement, CHO-K1 cell membranes; read-out: 5-HT2C pKi (converted). Summed up:
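CHO-K1 cell membranes expressing the receptor (6 μg) competed against [^3H]mesulergine (1 nM) in 50 mM Tris-HCl pH 7.7, 0.1% ascorbic acid, 10 μM pargyline for 30 min at 37° C; compounds 1×10^−10 to 1×10^−4M. Nonspecific binding with 100 μM mianserin; filtration and scintillation counting. IC50 converted to Ki using saturation-derived Kd.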

The target of test [4] is T2, human cloned 5-HT2B receptors. In words: Human cloned 5-HT2B receptor binding assay. Conditions: [3H]LSD (1 nM) displacement, membranes of CHO-K1 cells expressing cloned 5-HT2B receptor; read-out: 5-HT2B pKi (converted). The gist of the method: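 Membranes from CHO-K1 cells expressing cloned receptor incubated 30 min at 37 °C with 1 nM [3H]LSD, 10 μM pargyline and compound (1×10^−10 to 1×10^−4 M) in 50 mM Tris-HCl pH 7.4, 4 mM CaCl2. Nonspecific binding with 100 μM 5-HT; filtration and scintillation counting, IC50 converted to Ki using Kd from saturation binding.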

Structures can show the parent of a compound that is named as a salt.

T1 sequence (P28223 whole entry): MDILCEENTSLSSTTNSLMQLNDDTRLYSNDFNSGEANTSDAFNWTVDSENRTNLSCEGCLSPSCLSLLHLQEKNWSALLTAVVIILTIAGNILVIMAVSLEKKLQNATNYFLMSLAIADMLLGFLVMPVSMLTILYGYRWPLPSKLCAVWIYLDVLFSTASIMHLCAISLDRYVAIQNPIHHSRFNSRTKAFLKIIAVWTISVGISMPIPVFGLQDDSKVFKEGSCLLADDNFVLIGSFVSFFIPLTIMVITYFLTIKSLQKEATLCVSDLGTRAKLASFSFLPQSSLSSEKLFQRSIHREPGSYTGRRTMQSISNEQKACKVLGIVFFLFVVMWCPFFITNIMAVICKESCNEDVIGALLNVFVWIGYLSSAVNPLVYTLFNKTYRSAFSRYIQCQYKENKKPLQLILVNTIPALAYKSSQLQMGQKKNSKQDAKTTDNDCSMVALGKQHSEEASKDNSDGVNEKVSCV

Take `CC(=O)Nc1nc(-c2ccc(F)c3ccccc23)c[nH]1` [Compound 103F, N-[4-(4-Fluoro-naphthalen-1-yl)-1H-imidazol-2-yl]-acetamide]: the results for the Ki in test [1], in test [3] and in test [4] were > 3160 nM, > 3160 nM and < 100 nM, respectively. Moreover, in test [2], the half-inhibitory concentration (IC50) is < 100 nM.
Regarding `COc1ccc2ccccc2c1-c1c[nH]c(NC(C)=O)n1` [Compound 103C, N-[4-(2-Methoxy-naphthalen-1-yl)-1H-imidazol-2-yl]-acetamide], the Ki in test [1] is > 316 nM; in test [3], > 316 nM; in test [4], < 100 nM. For the same compound, the IC50 in test [2] was < 100 nM.
As to `COc1ccc2ccccc2c1-c1c[nH]c(N)n1` [Compound 104C, 4-(2-Methoxy-naphthalen-1-yl)-1H-imidazol-2-ylamine], the figures for the Ki in test [1], in test [3] and in test [4] were > 1000 nM, > 316 nM and < 100 nM, respectively. Besides, the 50% inhibitory concentration (IC50) in test [2] is < 1000 nM.
On the same counts, the results for `COc1ccc2ccccc2c1-c1nc(N)[nH]c1C` [Compound 104J, 4-(2-Methoxy-naphthalen-1-yl)-5-methyl-1H-imidazol-2-ylamine] are > 316 nM, > 100 nM, < 100 nM and < 100 nM.
In the same order, the values of `COc1ccccc1-c1cccc(-c2oc(N)nc2C)c1` [Compound 219B, 5-(2′-Methoxy-biphenyl-3-yl)-4-methyl-oxazol-2-ylamine, trifluoroacetic acid] are > 1000 nM, > 1000 nM, < 100 nM and < 1000 nM.
Turning to `CCOc1ccc2ccccc2c1-c1c[nH]c(N)n1` [Compound 104A, 4-(2-Ethoxy-naphthalen-1-yl)-1H-imidazol-2-ylamine], the Ki in test [1] is > 1000 nM; in test [3], > 100 nM; in test [4] it was < 1000 nM.
In the same order, the values of `Nc1nc(-c2cccc3ccc(Br)cc23)c[nH]1` [Compound 104G, 4-(7-Bromo-naphthalen-1-yl)-1H-imidazol-2-ylamine] are > 316 nM, > 316 nM and < 100 nM.
For the compound `Cc1cc(Nc2cc(Br)ccc2C)nc(N)n1` [Compound 2AP, N^4-(5-bromo-2-methyl-phenyl)-6-methyl-pyrimidine-2,4-diamine], the Ki was > 1000 nM in test [1], > 1000 nM in test [3] and < 1000 nM in test [4].
Take `Cc1ccc(Nc2cc(C)nc(N)n2)cc1` [Compound 2U, 6-methyl-N^4-p-tolyl-pyrimidine-2,4-diamine hydrochloride]: the Ki was > 1000 nM in test [1], > 1000 nM in test [3] and < 1000 nM in test [4].
Regarding `Cc1cccc(-c2cccc(Nc3nc(N)nn3C)c2)c1` [Compound 406C, 1-methyl-1-(3′-methyl-biphenyl-3-yl)-1H-[1,2,4]triazole-3,5-diamine], the Ki in test [1] was > 1000 nM; in test [3], > 1000 nM; in test [4], < 100 nM. The IC50 in test [2] was < 100 nM.
On to `Cc1cccc(-c2cccc(-c3cnc(N)o3)c2)c1` [Compound 209B, 5-(3′-Methyl-biphenyl-3-yl)-oxazol-2-ylamine], for which the Ki in test [1] was > 10000 nM; in test [3] it was > 10000 nM; in test [4], < 316 nM.
For the compound `Cc1cc(Nc2cccc(Br)c2C)nc(N)n1` [Compound 2T, N^4-(3-bromo-2-methyl-phenyl)-6-methyl-pyrimidine-2,4-diamine hydrochloride], the Ki in test [1] was > 1000 nM; in test [3], > 1000 nM; in test [4], < 1000 nM.
As to `COc1ccc(Nc2cc(C)nc(N)n2)cc1Cl` [Compound 2AC, N^4-(3-chloro-4-methoxy-phenyl)-6-methyl-pyrimidine-2,4-diamine, hydrochloride], the Ki in test [1] is > 1000 nM; in test [3] it was > 1000 nM; in test [4], < 1000 nM.
In the case of `Cc1cccc(-c2ccc(Nc3nc(N)nn3C)cc2)c1` [Compound 410C, 1-methyl-N^5-(3′-methyl-biphenyl-4-yl)-1H-[1,2,4]triazole-3,5-diamine trifluoroacetic acid], the results for the Ki in test [1], in test [3] and in test [4] were > 1000 nM, > 1000 nM and < 1000 nM, respectively.
On to `CC(=O)Nc1nc(-c2cccc3c(Br)cccc23)c[nH]1` [Compound 103H, N-[4-(5-Bromo-naphthalen-1-yl)-1H-imidazol-2-yl]-acetamide], for which the Ki in test [1] was > 1000 nM; in test [3] it was > 1000 nM; in test [4] it was < 100 nM.
`Cc1cc(Nc2ccc(I)cc2)nc(N)n1` [Compound 2E, N^4-(4-iodo-phenyl)-6-methyl-pyrimidine-2,4-diamine hydrochloride]: the Ki is > 10000 nM in test [1], > 316 nM in test [3] and < 1000 nM in test [4].
On the same counts, the results for `Cc1cccc(-c2cccc(Nc3cc(C)nc(N)n3)c2)c1` [Compound 10E, 6-methyl-N^4-(3′-methyl-biphenyl-3-yl)-pyrimidine-2,4-diamine trifluoroacetic acid] are > 100 nM, > 100 nM and < 100 nM.

As usually defined, the IC50 is the concentration needed to halve the response being measured. Low values mean higher potency, high ones lower potency.
